From the kinase profiling compilation of Christmann-Franck et al. (2016)

Key:
Assay in all cases: radiometric filter-binding kinase assay
[1] = molecular target: SRPK1 (human) (UniProt Q96SB4)
[2] = molecular target: PIM2 (human) (UniProt Q9P1W9)
[3] = molecular target: EPHA2 (human) (UniProt P29317)
[4] = system: AKT1 (human), P31749 [S473D]
[5] = molecular target: PIM3 (human) (UniProt Q86V86)
[6] = system: LCK (mouse); conditions: accession and sequence are those of the human protein
[7] = system: ROCK2 (rat); conditions: accession and sequence are those of the human protein
[8] = molecular target: NEK2 (human) (UniProt P51955)
[9] = molecular target: STK11 CAB39 STRADA (human) (UniProt Q9Y376+Q7RTN6+Q15831)
[10] = molecular target: PKN2 (human) (UniProt Q16513)
[11] = molecular target: CSNK2A1 (human) (UniProt P68400)
[12] = system: AKT2 (human), P31751 [S474D]
[13] = molecular target: TBK1 (human) (UniProt Q9UHD2)
[14] = molecular target: SYK (human) (UniProt P43405)
[15] = molecular target: MAP2K6 (human) (UniProt P52564)
[16] = molecular target: INSR (human) (UniProt P06213)
[17] = molecular target: MARK2 (human) (UniProt Q7KZI7)
[18] = molecular target: TTK (human) (UniProt P33981)
[19] = molecular target: FGFR1 (human) (UniProt P11362)
[20] = system: RPS6KB1 (human), P23443 [T412E]
[21] = molecular target: GSK3B (human) (UniProt P49841)
[22] = molecular target: EPHB1 (human) (UniProt P54762)
[23] = molecular target: MAPK11 (human) (UniProt Q15759)
[24] = molecular target: INSRR (human) (UniProt P14616)
[25] = molecular target: IRAK4 (human) (UniProt Q9NWZ3); conditions: compound 0.1 µM
[26] = molecular target: MYLK (human) (UniProt Q15746)
[27] = molecular target: MAP2K1 (human) (UniProt Q02750)
[28] = molecular target: MKNK1 (human) (UniProt Q9BUB5)
[29] = system: PAK2 (human), Q13177 [T402E]
[30] = molecular target: PHKG1 (human) (UniProt Q16816)
[31] = molecular target: MAP3K9 (human) (UniProt P80192)
[32] = molecular target: MAPK10 (human) (UniProt P53779)
[33] = molecular target: NEK6 (human) (UniProt Q9HC98)
[34] = molecular target: DYRK3 (human) (UniProt O43781)
[35] = molecular target: MAPK13 (human) (UniProt O15264)
[36] = molecular target: MARK1 (human) (UniProt Q9P0L2); conditions: compound 10.0 µM

FGFR1 (human), sequence (P11362 whole entry, looked up): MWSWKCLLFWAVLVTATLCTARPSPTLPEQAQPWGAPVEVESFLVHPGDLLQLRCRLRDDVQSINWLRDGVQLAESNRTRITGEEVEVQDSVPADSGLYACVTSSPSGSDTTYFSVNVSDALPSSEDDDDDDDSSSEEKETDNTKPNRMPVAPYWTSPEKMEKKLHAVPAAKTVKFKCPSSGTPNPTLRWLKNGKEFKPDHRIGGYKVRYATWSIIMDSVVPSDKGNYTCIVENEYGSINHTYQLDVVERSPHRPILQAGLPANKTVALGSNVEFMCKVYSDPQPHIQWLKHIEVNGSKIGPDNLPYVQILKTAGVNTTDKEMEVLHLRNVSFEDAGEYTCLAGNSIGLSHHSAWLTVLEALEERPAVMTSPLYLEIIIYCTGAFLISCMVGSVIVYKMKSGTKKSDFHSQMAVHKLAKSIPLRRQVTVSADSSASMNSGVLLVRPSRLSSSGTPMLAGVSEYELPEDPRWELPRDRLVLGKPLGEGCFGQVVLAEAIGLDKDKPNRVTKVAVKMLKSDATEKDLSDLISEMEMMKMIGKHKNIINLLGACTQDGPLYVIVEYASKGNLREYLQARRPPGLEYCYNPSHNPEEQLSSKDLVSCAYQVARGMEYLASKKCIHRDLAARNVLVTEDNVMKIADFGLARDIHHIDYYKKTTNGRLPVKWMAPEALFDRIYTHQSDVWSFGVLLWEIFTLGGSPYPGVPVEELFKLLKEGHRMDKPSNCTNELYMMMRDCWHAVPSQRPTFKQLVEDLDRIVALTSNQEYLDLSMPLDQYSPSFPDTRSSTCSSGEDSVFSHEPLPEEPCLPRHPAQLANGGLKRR
DYRK3 (human), sequence (O43781 whole entry, looked up): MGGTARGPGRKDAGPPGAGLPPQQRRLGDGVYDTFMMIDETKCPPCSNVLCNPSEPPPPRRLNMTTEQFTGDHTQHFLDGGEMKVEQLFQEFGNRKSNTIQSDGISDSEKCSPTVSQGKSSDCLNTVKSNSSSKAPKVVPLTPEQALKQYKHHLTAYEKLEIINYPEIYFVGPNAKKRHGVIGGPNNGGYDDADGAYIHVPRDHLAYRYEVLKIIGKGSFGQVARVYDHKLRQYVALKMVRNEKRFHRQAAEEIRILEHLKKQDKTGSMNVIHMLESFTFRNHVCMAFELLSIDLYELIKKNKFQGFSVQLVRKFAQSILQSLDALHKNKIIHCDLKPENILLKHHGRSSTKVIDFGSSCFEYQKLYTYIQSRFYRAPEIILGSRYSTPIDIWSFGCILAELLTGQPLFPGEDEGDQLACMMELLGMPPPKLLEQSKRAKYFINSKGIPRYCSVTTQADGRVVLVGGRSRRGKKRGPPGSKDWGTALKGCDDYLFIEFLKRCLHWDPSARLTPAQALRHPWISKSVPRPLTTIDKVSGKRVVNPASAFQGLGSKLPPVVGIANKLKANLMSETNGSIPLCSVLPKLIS
TTK (human), sequence (P33981 whole entry, looked up): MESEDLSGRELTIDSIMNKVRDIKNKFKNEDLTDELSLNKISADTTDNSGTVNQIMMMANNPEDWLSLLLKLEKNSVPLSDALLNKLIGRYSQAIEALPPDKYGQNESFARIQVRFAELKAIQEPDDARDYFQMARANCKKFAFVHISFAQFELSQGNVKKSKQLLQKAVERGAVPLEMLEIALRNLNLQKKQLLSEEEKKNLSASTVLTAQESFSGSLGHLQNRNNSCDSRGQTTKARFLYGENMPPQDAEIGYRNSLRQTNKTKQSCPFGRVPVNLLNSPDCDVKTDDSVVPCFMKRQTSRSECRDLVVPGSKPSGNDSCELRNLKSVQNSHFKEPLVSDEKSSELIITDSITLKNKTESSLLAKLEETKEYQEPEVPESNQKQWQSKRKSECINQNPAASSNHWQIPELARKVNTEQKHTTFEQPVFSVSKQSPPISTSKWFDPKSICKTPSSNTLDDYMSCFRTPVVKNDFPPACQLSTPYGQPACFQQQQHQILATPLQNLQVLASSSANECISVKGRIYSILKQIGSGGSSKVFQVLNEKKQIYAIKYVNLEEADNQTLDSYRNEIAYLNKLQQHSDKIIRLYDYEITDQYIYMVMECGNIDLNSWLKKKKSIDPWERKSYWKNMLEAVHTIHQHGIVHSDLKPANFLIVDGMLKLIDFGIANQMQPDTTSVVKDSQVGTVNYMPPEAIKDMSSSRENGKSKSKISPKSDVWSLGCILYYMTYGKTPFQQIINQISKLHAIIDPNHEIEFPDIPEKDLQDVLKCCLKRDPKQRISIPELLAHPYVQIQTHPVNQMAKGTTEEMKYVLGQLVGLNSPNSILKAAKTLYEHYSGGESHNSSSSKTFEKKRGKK
NEK2 (human), sequence (P51955 whole entry, looked up): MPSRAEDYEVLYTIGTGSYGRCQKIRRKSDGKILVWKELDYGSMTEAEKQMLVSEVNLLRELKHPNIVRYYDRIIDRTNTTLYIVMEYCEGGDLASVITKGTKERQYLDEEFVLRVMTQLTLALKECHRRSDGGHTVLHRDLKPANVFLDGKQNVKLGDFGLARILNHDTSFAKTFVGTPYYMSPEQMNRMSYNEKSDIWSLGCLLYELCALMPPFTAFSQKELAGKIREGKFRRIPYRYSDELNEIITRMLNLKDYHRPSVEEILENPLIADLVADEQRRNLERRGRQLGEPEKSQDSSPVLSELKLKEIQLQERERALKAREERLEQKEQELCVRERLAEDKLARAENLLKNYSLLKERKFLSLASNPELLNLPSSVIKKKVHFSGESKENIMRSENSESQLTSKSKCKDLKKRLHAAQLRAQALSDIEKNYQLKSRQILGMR
MAPK13 (human), sequence (O15264 whole entry, looked up): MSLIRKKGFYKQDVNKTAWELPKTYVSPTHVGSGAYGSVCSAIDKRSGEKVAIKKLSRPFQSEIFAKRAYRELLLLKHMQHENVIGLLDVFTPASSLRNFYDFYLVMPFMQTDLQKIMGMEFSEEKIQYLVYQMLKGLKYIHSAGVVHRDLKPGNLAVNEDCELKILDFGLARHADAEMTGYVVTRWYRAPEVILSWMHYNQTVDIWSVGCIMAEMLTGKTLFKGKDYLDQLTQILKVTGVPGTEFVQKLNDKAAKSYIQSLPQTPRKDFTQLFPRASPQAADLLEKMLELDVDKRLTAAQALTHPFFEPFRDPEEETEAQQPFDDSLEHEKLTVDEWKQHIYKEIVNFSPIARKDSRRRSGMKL
INSR (human), sequence (P06213 whole entry, looked up): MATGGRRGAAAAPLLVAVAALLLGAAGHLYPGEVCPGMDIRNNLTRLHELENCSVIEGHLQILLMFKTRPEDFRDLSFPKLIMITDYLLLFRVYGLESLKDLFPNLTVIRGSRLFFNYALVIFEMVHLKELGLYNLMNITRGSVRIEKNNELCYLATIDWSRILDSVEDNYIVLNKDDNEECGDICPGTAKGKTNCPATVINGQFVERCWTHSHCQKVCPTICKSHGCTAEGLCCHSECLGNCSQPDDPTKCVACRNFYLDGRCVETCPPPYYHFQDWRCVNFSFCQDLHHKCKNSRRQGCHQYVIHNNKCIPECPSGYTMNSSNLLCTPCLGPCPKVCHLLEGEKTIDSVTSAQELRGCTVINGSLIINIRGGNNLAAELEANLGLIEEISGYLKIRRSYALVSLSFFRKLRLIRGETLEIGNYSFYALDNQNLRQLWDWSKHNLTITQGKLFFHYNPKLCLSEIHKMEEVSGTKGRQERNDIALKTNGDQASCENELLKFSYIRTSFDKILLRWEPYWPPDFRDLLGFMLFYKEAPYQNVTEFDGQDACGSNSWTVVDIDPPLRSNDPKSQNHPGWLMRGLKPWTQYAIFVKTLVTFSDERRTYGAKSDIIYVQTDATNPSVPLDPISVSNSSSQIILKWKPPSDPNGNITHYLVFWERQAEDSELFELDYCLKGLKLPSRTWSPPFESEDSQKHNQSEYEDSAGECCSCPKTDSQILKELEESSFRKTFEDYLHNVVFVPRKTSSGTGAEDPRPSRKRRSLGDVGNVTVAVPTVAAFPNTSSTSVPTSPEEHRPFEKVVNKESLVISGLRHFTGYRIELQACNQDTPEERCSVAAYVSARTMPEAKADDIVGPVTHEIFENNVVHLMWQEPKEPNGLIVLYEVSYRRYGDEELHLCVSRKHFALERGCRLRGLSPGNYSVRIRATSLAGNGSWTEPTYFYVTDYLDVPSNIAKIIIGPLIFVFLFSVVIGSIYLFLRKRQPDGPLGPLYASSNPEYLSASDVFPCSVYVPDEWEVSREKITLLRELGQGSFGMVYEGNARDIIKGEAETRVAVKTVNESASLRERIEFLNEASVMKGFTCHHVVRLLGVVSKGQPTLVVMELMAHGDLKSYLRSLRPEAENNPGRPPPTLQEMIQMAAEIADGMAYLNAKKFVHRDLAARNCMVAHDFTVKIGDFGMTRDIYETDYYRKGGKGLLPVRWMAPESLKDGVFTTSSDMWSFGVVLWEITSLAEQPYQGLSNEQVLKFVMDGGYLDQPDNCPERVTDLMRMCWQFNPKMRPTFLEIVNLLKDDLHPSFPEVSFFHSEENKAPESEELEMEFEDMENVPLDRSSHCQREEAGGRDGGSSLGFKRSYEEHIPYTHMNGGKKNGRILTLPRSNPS
PAK2 (human), Q13177 [T402E], sequence (Q13177 whole entry T402E, looked up): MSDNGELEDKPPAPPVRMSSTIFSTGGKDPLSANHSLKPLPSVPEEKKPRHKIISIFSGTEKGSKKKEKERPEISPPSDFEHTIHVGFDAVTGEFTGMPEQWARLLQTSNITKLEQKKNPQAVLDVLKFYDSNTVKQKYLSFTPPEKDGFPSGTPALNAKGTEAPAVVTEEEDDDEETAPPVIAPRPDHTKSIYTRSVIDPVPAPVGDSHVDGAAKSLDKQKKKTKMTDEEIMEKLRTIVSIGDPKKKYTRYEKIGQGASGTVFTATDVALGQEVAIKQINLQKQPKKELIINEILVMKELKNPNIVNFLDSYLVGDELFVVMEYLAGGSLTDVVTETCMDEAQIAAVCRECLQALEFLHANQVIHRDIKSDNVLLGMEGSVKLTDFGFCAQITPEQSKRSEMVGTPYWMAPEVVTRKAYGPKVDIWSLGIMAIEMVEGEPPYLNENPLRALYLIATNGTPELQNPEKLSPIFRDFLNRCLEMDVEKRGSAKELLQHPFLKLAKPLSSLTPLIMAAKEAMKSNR

In the case of O=C(N[C@@H](COc1ccc2[nH]c(=O)[nH]c2c1)c1ccccc1)c1cccn(Cc2ccc(F)c(F)c2)c1=O, the residual activity ([1]; compound 0.1 µM) is reported as 107%, the residual activity ([1]; compound 1.0 µM) is reported as 114% and the residual activity ([1]; compound 10.0 µM) is reported as 101%. It also gave a residual activity ([2]; compound 0.1 µM) of 107%, a residual activity ([2]; compound 1.0 µM) of 105% and a residual activity ([2]; compound 10.0 µM) of 85%. It also gave a residual activity ([3]; compound 1.0 µM) of 102%, a residual activity ([3]; compound 10.0 µM) of 86% and a residual activity ([4]; compound 0.1 µM) of 96%. The residual activity ([4]; compound 1.0 µM) was 97%, the residual activity ([4]; compound 10.0 µM) was 90% and the residual activity ([5]; compound 0.1 µM) was 103%. It also gave a residual activity ([5]; compound 1.0 µM) of 108%, a residual activity ([5]; compound 10.0 µM) of 95% and a residual activity ([6]; compound 0.1 µM) of 109%. For the same compound, the residual activity ([6]; compound 1.0 µM) was 101%, the residual activity ([6]; compound 10.0 µM) was 91% and the residual activity ([7]; compound 0.1 µM) was 105%. It also gave a residual activity ([7]; compound 1.0 µM) of 112%, a residual activity ([7]; compound 10.0 µM) of 108% and a residual activity ([8]; compound 0.1 µM) of 107%. It also gave a residual activity ([8]; compound 1.0 µM) of 97%, a residual activity ([8]; compound 10.0 µM) of 96% and a residual activity ([9]; compound 0.1 µM) of 102%. It also gave a residual activity ([9]; compound 1.0 µM) of 100%, a residual activity ([9]; compound 10.0 µM) of 93% and a residual activity ([10]; compound 0.1 µM) of 108%. The residual activity ([10]; compound 1.0 µM) was 113%, the residual activity ([10]; compound 10.0 µM) was 103% and the residual activity ([11]; compound 0.1 µM) was 111%. It also gave a residual activity ([11]; compound 1.0 µM) of 103%, a residual activity ([11]; compound 10.0 µM) of 107% and a residual activity ([12]; compound 0.1 µM) of 98%. For the same compound, the residual activity ([12]; compound 1.0 µM) was 96%, the residual activity ([12]; compound 10.0 µM) was 77% and the residual activity ([13]; compound 0.1 µM) was 109%. The residual activity ([13]; compound 1.0 µM) was 132%, the residual activity ([13]; compound 10.0 µM) was 102% and the residual activity ([14]; compound 0.1 µM) was 99%. The residual activity ([14]; compound 1.0 µM) was 88%, the residual activity ([14]; compound 10.0 µM) was 82% and the residual activity ([15]; compound 0.1 µM) was 94%. The residual activity ([15]; compound 1.0 µM) was 89%, the residual activity ([15]; compound 10.0 µM) was 108% and the residual activity ([16]; compound 0.1 µM) was 99%. The residual activity ([16]; compound 1.0 µM) was 95%, the residual activity ([16]; compound 10.0 µM) was 93% and the residual activity ([17]; compound 0.1 µM) was 105%. For the same compound, the residual activity ([17]; compound 1.0 µM) was 102%, the residual activity ([17]; compound 10.0 µM) was 88% and the residual activity ([18]; compound 0.1 µM) was 99%. For the same compound, the residual activity ([18]; compound 1.0 µM) was 100%, the residual activity ([18]; compound 10.0 µM) was 95% and the residual activity ([19]; compound 0.1 µM) was 96%. For the same compound, the residual activity ([19]; compound 1.0 µM) was 97%, the residual activity ([19]; compound 10.0 µM) was 75% and the residual activity ([20]; compound 0.1 µM) was 103%. It also gave a residual activity ([20]; compound 1.0 µM) of 97%, a residual activity ([20]; compound 10.0 µM) of 98% and a residual activity ([21]; compound 0.1 µM) of 97%. The residual activity ([21]; compound 1.0 µM) was 96%, the residual activity ([21]; compound 10.0 µM) was 64% and the residual activity ([22]; compound 0.1 µM) was 87%. It also gave a residual activity ([22]; compound 1.0 µM) of 88%, a residual activity ([22]; compound 10.0 µM) of 90% and a residual activity ([23]; compound 0.1 µM) of 100%. For the same compound, the residual activity ([23]; compound 1.0 µM) was 110%, the residual activity ([23]; compound 10.0 µM) was 115% and the residual activity ([24]; compound 0.1 µM) was 101%. For the same compound, the residual activity ([24]; compound 1.0 µM) was 114%, the residual activity ([24]; compound 10.0 µM) was 105% and the residual activity [25] was 110%. It also gave a residual activity ([26]; compound 0.1 µM) of 97%, a residual activity ([26]; compound 1.0 µM) of 97% and a residual activity ([26]; compound 10.0 µM) of 89%. It also gave a residual activity ([27]; compound 0.1 µM) of 100%, a residual activity ([27]; compound 10.0 µM) of 95% and a residual activity ([28]; compound 0.1 µM) of 106%. The residual activity ([28]; compound 1.0 µM) was 99%, the residual activity ([28]; compound 10.0 µM) was 99% and the residual activity ([29]; compound 0.1 µM) was 113%. It also gave a residual activity ([29]; compound 1.0 µM) of 109%, a residual activity ([29]; compound 10.0 µM) of 79% and a residual activity ([30]; compound 0.1 µM) of 100%. It also gave a residual activity ([30]; compound 1.0 µM) of 117%, a residual activity ([31]; compound 0.1 µM) of 119% and a residual activity ([31]; compound 1.0 µM) of 102%. For the same compound, the residual activity ([31]; compound 10.0 µM) was 50%, the residual activity ([32]; compound 0.1 µM) was 101% and the residual activity ([32]; compound 1.0 µM) was 90%. The residual activity ([32]; compound 10.0 µM) was 101%, the residual activity ([33]; compound 0.1 µM) was 104% and the residual activity ([33]; compound 1.0 µM) was 100%. The residual activity ([33]; compound 10.0 µM) was 98%, the residual activity ([34]; compound 0.1 µM) was 109% and the residual activity ([34]; compound 1.0 µM) was 109%. For the same compound, the residual activity ([34]; compound 10.0 µM) was 93%, the residual activity ([35]; compound 0.1 µM) was 91% and the residual activity ([35]; compound 1.0 µM) was 97%. It also gave a residual activity ([35]; compound 10.0 µM) of 94% and a residual activity [36] of 107%.
